Tests used:
foxtail, giant [1] = experiment: Test A preemergence; format: in vivo, Setaria faberii; conditions: preemergence
Method in brief: (§1)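 After sowing in a sand–loam mix, pots received compound preemergence by directed soil spray, or postemergence once plants reached the one- to two-leaf stage (2–10 cm). Formulation contained surfactant in a non-phytotoxic solvent. Injury was scored visually after ~10 greenhouse days, 0–100 scale.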

morningglory = experiment: Test A preemergence; format: in vivo, Ipomoea spp.; conditions: preemergence
Method in brief: as §1

velvetleaf = experiment: Test A preemergence; format: in vivo, Abutilon theophrasti; conditions: preemergence
Method in brief: as §1

corn [2] = experiment: Test A preemergence; format: in vivo, Zea mays; conditions: preemergence
Method in brief: as §1

crabgrass, large = experiment: Test A postemergence; format: in vivo, Digitaria sanguinalis
Method in brief: as §1

pigweed = experiment: Test A postemergence; format: in vivo, Amaranthus retroflexus
Method in brief: as §1

wheat [3] = experiment: Test A postemergence; format: in vivo, Triticum aestivum
Method in brief: as §1

sedge, umbrella = experiment: Test B flood; format: in vivo, Cyperus difformis; conditions: 250 g ai/ha, visual rating on 0 to 100 scale (0 no effect, 100 complete control), 13 to 15 days
Method in brief: (§2)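 2-leaf plants; pots flooded 3 cm over soil; compound added to paddy water, depth kept constant. Greenhouse 13–15 d. Visual rating vs controls, 0–100 scale (100 = complete control); dash = no result.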

ducksalad = experiment: Test B flood; format: in vivo, Heteranthera limosa; conditions: 250 g ai/ha, visual rating on 0 to 100 scale (0 no effect, 100 complete control), 13 to 15 days
Method in brief: as §2

wheat [4] = experiment: Test C preemergence; format: in vivo, Triticum aestivum; conditions: for Plant response rating (scale of 0 to 100), Wheat: Preemergence, 250 g ai/ha; for Wheat plant response rating / Plant response rating, Wheat: preemergence; for Plant response rating, Wheat: scale 0 to 100, 0 = no effect, 100 = complete control
Method in brief: (§3)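 Scores of 0 (no effect) to 100 (complete control) were assigned by eye after 13–15 days, comparing treated pots with controls. Soil-applied (preemergence) treatments went onto seeds in loam and sand; foliar (postemergence) treatments onto 1- to 4-leaf plants in peat medium.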

galium = experiment: Test C preemergence; format: in vivo, Galium aparine; conditions: for Plant response rating (scale of 0 to 100), Galium: Preemergence, 250 g ai/ha; for Galium plant response rating / Plant response rating, Galium: preemergence; for Plant response rating, Galium: scale 0 to 100, 0 = no effect, 100 = complete control
Method in brief: as §3

corn [5] = experiment: Test C preemergence; format: in vivo, Zea mays; conditions: for Plant response rating (scale of 0 to 100), Corn: Preemergence, 250 g ai/ha; for Corn plant response rating / Plant response rating, Corn: preemergence; for Plant response rating, Corn: 62 g ai/ha, scale 0 to 100, 0 = no effect, 100 = complete control
Method in brief: as §3

foxtail, giant [6] = experiment: Test C preemergence; format: in vivo, Setaria faberii; conditions: for Plant response rating (scale of 0 to 100), Foxtail, Giant: Preemergence, 250 g ai/ha; for Foxtail, Giant plant response rating / Plant response rating, Foxtail, Giant: preemergence; for Plant response rating, Foxtail, Giant: scale 0 to 100, 0 = no effect, 100 = complete control
Method in brief: as §3

nutsedge, yellow = experiment: Test C preemergence; format: in vivo, Cyperus esculentus; conditions: for Plant response rating (scale of 0 to 100), Nutsedge, Yellow: Preemergence, 250 g ai/ha; for Nutsedge, Yellow plant response rating / Plant response rating, Nutsedge, Yellow: preemergence; for Plant response rating, Nutsedge, Yellow: scale 0 to 100, 0 = no effect, 100 = complete control
Method in brief: as §3

oilseed rape = experiment: Test C preemergence; format: in vivo, Brassica napus; conditions: for Plant response rating (scale of 0 to 100), Oilseed Rape: Preemergence, 250 g ai/ha; for Oilseed Rape plant response rating / Plant response rating, Oilseed Rape: preemergence; for Plant response rating, Oilseed Rape: scale 0 to 100, 0 = no effect, 100 = complete control
Method in brief: as §3

[7] = 125 g ai/ha, visual injury, 0 to 100 scale, approx. 10 days
[8] = 500 g ai/ha, visual injury after approx. 10 days, 0 to 100 scale (0 no effect, 100 complete control)
[9] = Postemergence, 500 g ai/ha, visual rating after approx. 10 days, 0 to 100 scale (0 no effect, 100 complete control)
[10] = postemergence, 125 g ai/ha, about 10 days, visual rating on 0 to 100 scale (0 no effect, 100 complete control)
[11] = 31 g ai/ha, visual rating, scale 0 to 100 (0 no effect, 100 complete control), 13 to 15 days
[12] = 125 g ai/ha, scale 0 to 100, 0 is no effect, 100 is complete control
[13] = 62 g ai/ha, scale 0 to 100 (0 no effect, 100 complete control), 13 to 15 days

Row | Structure (SMILES) | Foxtail, Giant plant response rating (foxtail, giant [1]; [7]) | Foxtail, Giant plant response rating (foxtail, giant [1]; [8]) | Morningglory plant response rating (morningglory; [7]) | Morningglory plant response rating (morningglory; [8]) | Velvetleaf plant response rating (velvetleaf; [7]) | Velvetleaf plant response rating (velvetleaf; [8]) | Corn plant response rating (corn [2]; [7]) | Corn plant response rating (corn [2]; [8]) | Crabgrass, Large plant response rating (crabgrass, large; [9]) | Crabgrass, Large plant response rating (crabgrass, large; [10]) | Pigweed plant response rating (pigweed; [9]) | Pigweed plant response rating (pigweed; [10]) | Wheat plant response rating (wheat [3]; [9]) | Wheat plant response rating (wheat [3]; [10]) | Plant response rating, Sedge, Umbrella (sedge, umbrella) | Plant response rating, Ducksalad (ducksalad) | Plant response rating (scale of 0 to 100), Wheat (wheat [4]) | Wheat plant response rating (wheat [4]; [11]) | Wheat plant response rating (wheat [4]; [12]) | Plant response rating (scale of 0 to 100), Galium (galium) | further results
1 | CCc1cc(C(=O)NC(C)C)nn1Cc1ccnc(C(F)(F)F)c1 [Compound 103] | 100 | 100 | 100 | 100 | 100 | 100 | 70 | 90 | 100 | 90 | 90 | 90 | 90 | 80 | 90 | 90 | 98 | 10 | 95 | 100 | Plant response rating, Wheat (wheat [4]; 62 g ai/ha, 13 to 15 days): 90; Galium plant response rating (galium; [11]): 100; Plant response rating, Galium (galium; 62 g ai/ha, 13 to 15 days): 100; Galium plant response rating (galium; [12]): 100; Plant response rating (scale of 0 to 100), Corn (corn [5]): 100; Corn plant response rating (corn [5]; [11]): 75; Plant response rating, Corn (corn [5]; 13 to 15 days): 100; Corn plant response rating (corn [5]; [12]): 100; Plant response rating (scale of 0 to 100), Foxtail, Giant (foxtail, giant [6]): 100; Foxtail, Giant plant response rating (foxtail, giant [6]; [11]): 100; Plant response rating, Foxtail, Giant (foxtail, giant [6]; 62 g ai/ha, 13 to 15 days): 100; Foxtail, Giant plant response rating (foxtail, giant [6]; [12]): 100; Plant response rating (scale of 0 to 100), Nutsedge, Yellow (nutsedge, yellow): 95; Nutsedge, Yellow plant response rating (nutsedge, yellow; [11]): 40; Plant response rating, Nutsedge, Yellow (nutsedge, yellow; 62 g ai/ha, 13 to 15 days): 80; Nutsedge, Yellow plant response rating (nutsedge, yellow; [12]): 85; Plant response rating (scale of 0 to 100), Oilseed Rape (oilseed rape): 100; Oilseed Rape plant response rating (oilseed rape; [11]): 100; Plant response rating, Oilseed Rape (oilseed rape; 62 g ai/ha, 13 to 15 days): 100; Oilseed Rape plant response rating (oilseed rape; [12]): 100
2 | CCOc1cc(C(=O)NCC(F)(F)F)nn1Cc1ccnc(C(F)(F)F)c1 [Compound 104] | 100 | 100 | 100 | 100 | 100 | 100 | 60 | 80 | 90 | 90 | 100 | 100 | 70 | 70 | 0 | 0 | 90 | 40 | 90 | 100 | Plant response rating, Wheat (wheat [4]; 62 g ai/ha, 13 to 15 days): 60; Galium plant response rating (galium; [11]): 90; Plant response rating, Galium (galium; 62 g ai/ha, 13 to 15 days): 98; Galium plant response rating (galium; [12]): 100; Plant response rating (scale of 0 to 100), Corn (corn [5]): 98; Corn plant response rating (corn [5]; [11]): 40; Plant response rating, Corn (corn [5]; 13 to 15 days): 65; Corn plant response rating (corn [5]; [12]): 98; Plant response rating (scale of 0 to 100), Foxtail, Giant (foxtail, giant [6]): 100; Foxtail, Giant plant response rating (foxtail, giant [6]; [11]): 100; Plant response rating, Foxtail, Giant (foxtail, giant [6]; 62 g ai/ha, 13 to 15 days): 100; Foxtail, Giant plant response rating (foxtail, giant [6]; [12]): 100; Plant response rating (scale of 0 to 100), Nutsedge, Yellow (nutsedge, yellow): 98; Nutsedge, Yellow plant response rating (nutsedge, yellow; [11]): 70; Plant response rating, Nutsedge, Yellow (nutsedge, yellow; 62 g ai/ha, 13 to 15 days): 95; Nutsedge, Yellow plant response rating (nutsedge, yellow; [12]): 98; Plant response rating (scale of 0 to 100), Oilseed Rape (oilseed rape): 100; Oilseed Rape plant response rating (oilseed rape; [11]): 100; Plant response rating, Oilseed Rape (oilseed rape; 62 g ai/ha, 13 to 15 days): 100; Oilseed Rape plant response rating (oilseed rape; [12]): 100
3 | CCCc1cc(C(=O)NCC(F)(F)F)nn1Cc1ccnc(C(F)(F)F)c1 [Compound 105] | 100 | 100 | 100 | 100 | 100 | 100 | 60 | 70 | 100 | 100 | 100 | 100 | 100 | 100 | 95 | 95 | 90 | 75 | 90 | 100 | Wheat plant response rating (wheat [4]; [13]): 85; Galium plant response rating (galium; [11]): 100; Galium plant response rating (galium; [13]): 100; Galium plant response rating (galium; [12]): 100; Plant response rating (scale of 0 to 100), Corn (corn [5]): 95; Corn plant response rating (corn [5]; [11]): 65; Corn plant response rating (corn [5]; [12]): 80; Plant response rating (scale of 0 to 100), Foxtail, Giant (foxtail, giant [6]): 100; Foxtail, Giant plant response rating (foxtail, giant [6]; [11]): 100; Foxtail, Giant plant response rating (foxtail, giant [6]; [13]): 100; Foxtail, Giant plant response rating (foxtail, giant [6]; [12]): 100; Plant response rating (scale of 0 to 100), Nutsedge, Yellow (nutsedge, yellow): 95; Nutsedge, Yellow plant response rating (nutsedge, yellow; [11]): 50; Nutsedge, Yellow plant response rating (nutsedge, yellow; [13]): 85; Nutsedge, Yellow plant response rating (nutsedge, yellow; [12]): 95; Plant response rating (scale of 0 to 100), Oilseed Rape (oilseed rape): 100; Oilseed Rape plant response rating (oilseed rape; [11]): 95; Oilseed Rape plant response rating (oilseed rape; [13]): 95; Oilseed Rape plant response rating (oilseed rape; [12]): 95
